Measured values from patent publication US20260041677A1, “COMPOSITIONS AND METHODS FOR TREATING ADENOID CYSTIC CARCINOMA” (ELEVAR THERAPEUTICS, INC., priority 2022, published 2026).

Test system: recurrent or metastatic (R/M) adenoid cystic carcinoma (ACC)
Test: Phase 2 study of rivoceranib in R/M ACC: response, PFS, TTP per CHOI response criteria by BIRC
Format: in vivo, human
Settings: for Complete Response / DoR 25th percentile / DoR 75th percentile / DoR Median / Partial Response / Progressive Disease / Stable Disease / DCR (disease control rate): BIRC
Text: Objectives: Primary objectives were to evaluate safety & tolerability, efficacy by objective response rate (ORR), best overall response (BOR), time to response, duration of response, disease control rate, and duration of disease control. Secondary objectives were to evaluate efficacy as measured by overall survival, progression-free survival and event-free survival. The primary efficacy endpoint was the ORR, defined as the proportion of patients who achieved confirmed complete response (CR) or partial response (PR) per Response Evaluation Criteria in Solid Tumors (RECIST) Version 1.1 (V1.1). The secondary efficacy endpoints were duration of response (DoR) assessed by the investigator and a blinded independent review committee (BIRC), progression-free survival (PFS) assessed at 6 months, 12 months, and 2 years by investigator and BIRC, Time to Progression (TTP) assessed by investigator and BIRC, and overall survival (OS) assessed at 1 and 2 years. Exploratory efficacy endpoints include ORR per CHOI response criteria (based on the journal article, Choi et al., Correlation of computed tomography and positron emission tomography in patients with metastatic gastrointestinal stromal tumor treated at a single institution with imatinib mesylate: proposal of new computed tomography response criteria. J Clin Oncol. 2007; 25(13): 1753-1759) by a blinded independent review […] (BIRC) and disease control rate (DCR) per RECIST V1.1 by Investigator and BIRC. Except for CHOI response criteria, all response endpoints were assessed per RECIST V1.1 by Investigator and BIRC.
Endpoint of Response per CHOI response Criteria: CHOI response criteria assesses response based on change in tumor density as well as change in tumor size and have been most often used to assess response to treatment with tyrosine kinase inhibitors such as imatinib in gastrointestinal stromal tumors (GIST) where RECIST criteria underestimate response. Evaluation of response per CHOI response criteria by BIRC was added to the protocol for exploratory analysis because Investigators observed decreases in tumor density on treatment with rivoceranib without changes in tumor lesion diameters. Changes in tumor density had not been reported with other treatments investigated for R/M ACC.
Objective response rate (ORR), duration of response (DOR) and disease control rate (DCR) in the efficacy evaluable population per CHOI response criteria (using the same data set as used for analyses per RECIST V1.1): Assessment of response per CHOI response criteria required a subject have contrast-enhanced CT scan as the imaging modality for assessment of tumor density at baseline and post-baseline time points. Therefore, fewer subjects were efficacy evaluable per CHOI response criteria (N=60) than per RECIST V1.1 criteria (N=73). […] This is >4-fold higher than the ORR of 9.6% per RECIST V1.1 reported by BIRC. […] Median DOR per CHOI response criteria was 14.8 months, which was two-fold higher than that reported per RECIST V1.1-7.2 months reported by BIRC.

[1] = CHOI criteria, Total N = 60, 700 mg QD start
[2] = CHOI criteria, VEGFRi-naïve N = 48, 700 mg QD start
[3] = CHOI criteria, VEGFRi-treated N = 12, 700 mg QD start
[4] = CHOI criteria, efficacy evaluable population, 700 mg QD start

N#CC1(c2ccc(NC(=O)c3cccnc3NCc3ccncc3)cc2)CCCC1 [Rivoceranib, N-[4-(1-cyanocyclopentyl)phenyl]-2-{[(pyridin-4-yl)methyl]amino}pyridine-3-carboxamide]
ORR per CHOI criteria relative to ORR per RECIST V1.1 by BIRC (51.7% vs 9.6%): > 4 fold
Complete Response [1]: 0%
DoR 25th percentile [1]: 7.2 months
DoR 75th percentile [1]: 20.2 months
DoR Median [1]: 14.8 months
Partial Response [1]: (51.7) %
Progressive Disease [1]: (6.7) %
Stable Disease [1]: (41.7) %
Complete Response [2]: 0%
DCR (disease control rate) [2]: (60.4) %
DoR 25th percentile [2]: 7.2 months
DoR 75th percentile [2]: 20.2 months
DoR Median [2]: 14.8 months
Partial Response [2]: (52.1) %
Progressive Disease [2]: (6.3) %
Stable Disease [2]: (41.7) %
Complete Response [3]: 0%
DCR (disease control rate) [3]: (66.7) %
DoR 25th percentile [3]: 12.2 months
DoR Median [3]: 12.2 months
Partial Response [3]: (50.0) %
Progressive Disease [3]: (8.3) %
Stable Disease [3]: (41.7) %
Median TTP [4]: 14.4 months
estimated PFS rate at 6 months [4]: 80.4%
estimated PFS rate at 9 months [4]: 62.6%
estimated PFS rate at 12 months [4]: 53.8%
estimated TTP rate at 6 months [4]: 82%
estimated TTP rate at 9 months [4]: 67.7%
estimated TTP rate at 12 months [4]: 58.3%
median PFS [4]: 13.8 months
